Where “and” joins values, the source holds several entries; their conditions need not be identical. Equal entries are not always repeated.
Tests used:
[1] = tested on: xenograft breast tumors derived from the breast cancer cell line MCF-7; test: COX7A1 expression in MCF-7 xenograft breast tumors after doxorubicin; type: in vivo; details: MCF-7 xenograft breast tumors treated with doxorubicin; controls 3.84 and 4.52
From the text: The present invention instead teaches the contrary, that these surviving CSCs are instead cancer cells that display a post-EFT pattern (i.e. a more mature pattern) of gene expression. Using the expression of the gene COX7A1 as a transcriptional marker of pre- or post-EFT cells wherein COX7A1 is expressed in post-EFT cells, we observe that pancreatic cancer with ablated KRAS leading to pancreatic CSCs, results in increased COX7A1 and CAT (also a post-EFT marker), not decreased as predicted by current models (FIG. 10). In addition, the treatment of xenograft breast tumors derived from the breast cancer cell line MCF-7 with the anti-tumor anthracycline antibiotic doxorubicin results in COX7A1 RFU levels of 5.04 and 5.57 compared to controls of 3.84 and 4.52 in controls, again indicative of the more mature state of surviving cells following chemotherapy. In addition, in the example of rectal cancer, levels of COX7A1 expression were 92.7 RFUs following radiotherapy compared to 75 RFUs in untreated rectal cancer (p<0.05). […]

[2] = tested on: normal pre-EFT vascular progenitors; test: TUNEL apoptosis assay after camptothecin, pre-EFT vascular progenitors; type: cell-based, human; details: 37 uM camptothecin, 24 h
Procedure: (§1) The pre-EFT (DC) fibrosarcoma cell line HT1080 was infected with lentivirus expressing COX7A1 together with a control line expressing green fluorescent protein (GFP). The resulting cells were treated with 0, 0.37, and 37 uM camptothecin to generate a DNA damage response and apoptosis. TUNEL (TdT-mediated dUTP-X nick end labeling) adds label to termini of ssDNA and dsDNA. Readout used was fluorescent nuclei read by microscopy. In brief, cell lines were cultured in 96-well plates at 5000 cells/well and grown over night. The following day, the growth medium was removed and replaced with growth medium containing compounds and controls. After 24 h, the cells are fixed for 20 minutes using 4% PFA. Plates are stored at 4 deg C. in PBS until processing. Fixed cells were permeabilized with 0.1% Triton X-100 and 0.1% sodium citrate for 2 minutes on ice. […] 9 images per well were collected and analyzed for total cell number and number of cells stained for apoptosis.
(§2) Similarly, normal pre-EFT vascular progenitors were more sensitive to apoptosis at 37 uM of camptothecin (39% apoptosis) compared to adult aortic endothelial counterparts (25.5% apoptosis). In addition, H2O2-mediated apoptosis was measured in post-EFT cells (adult bone marrow MSCs) before and after knock-down of COX7A1 expression.

[3] = tested on: adult aortic endothelial counterparts; test: TUNEL apoptosis assay after camptothecin, adult aortic endothelial cells; type: cell-based, human; details: 37 uM camptothecin, 24 h
Procedure: as §1, §2

[4] = tested on: fibrosarcoma cell line HT1080; test: TUNEL apoptosis assay after camptothecin, HT1080 expressing COX7A1 vs GFP control; type: cell-based, human; details: 0, 0.37 and 37 uM camptothecin, 24 h, p<0.05
Procedure: as §1, §2

adult bone marrow MSCs = test: H2O2-mediated apoptosis (survival) before and after knock-down of COX7A1; type: cell-based, human; details: 300 uM H2O2
Procedure: as §2

COc1cccc2c1C(=O)c1c(O)c3c(c(O)c1C2=O)C[C@@](O)(C(=O)CO)C[C@@H]3O[C@H]1C[C@H](N)[C@H](O)[C@H](C)O1 [doxorubicin]
COX7A1 RFU levels [1]: 5.04 RFU and 5.57 RFU

CC[C@@]1(O)C(=O)OCc2c1cc1n(c2=O)Cc2cc3ccccc3nc2-1 [camptothecin]
apoptosis [2]: 39% | apoptosis [3]: 25.5% | sensitivity to apoptosis (TUNEL) [4]: significantly decreased sensitivity to apoptosis

OO [H2O2]
cells surviving (adult bone marrow MSCs; MSCs after knockdown of COX7A1 (iTR modality), p<0.05): 59.8% | cells surviving (adult bone marrow MSCs; normal adult bone marrow MSCs): 82.4%
